Laboratory results taken from US7989495B2, “Compositions and methods for inhibiting NF-κB mediated tumorigenicity and adhesion dependent survival of cancer cells” (University of Utah Research Foundation, priority 2002, dated 2011).
Several values for one entry are separate records, joined by “and”; a condition that tells them apart may be missing. Equal values may be shown once.

Tests used:
[1] = system: HT-29 cells injected intraperitoneally; experiment: Intraabdominal seeding (metastasis) model in athymic mice; format: in vivo; settings: HT-29 intraperitoneal; pretreated 24 hours earlier, then twice weekly, 21 days; n = 6
From the text: (§1) FIGS. 6A, B, C show tumor implants of the liver of three athymic mice 21 days after receiving intraperitoneal injections of HT-29 cells. The mice were pretreated and treated for a total of 21 days with DMSO twice weekly. […] The mouse was pretreated and treated for a total of 21 days with DMSO twice weekly. […] This section was obtained from the tumor implant from the mouse in FIG. 6A. […] FIG. 6G, (liver), FIG. 6H, (abdominal wall), and FIG. 6I, (intestinal) show tumor implants in three athymic mice 21 days after receiving intraabdominal injections of HCT-116 cells. All of the mice were treated with 5 mg/kg of BAY 11-7085 twice weekly.
(§2) HT-29 and HCT-116 cells were harvested in 0.25% trypsin-PBS-EDTA, washed once in media and PBS, and resuspended in PBS at 1 million cells per 200 μL. One million cells were injected either subcutaneously in the backs or intraperitoneally in 5 week old female nu/nu athymic mice (Charles River Labs). For the mice with subcutaneous tumors, the tumors were allowed to establish themselves for 10 days after which they were randomized to BAY 11-7085 or DMSO. For the mice with intraperitoneal tumors, the mice received DMSO or BAY 11-7085 (5 mg/kg) 24 hours before the cancer cells were injected intrapentoneally. All mice received BAY 11-7085 (5 mg/kg) or an equal volume of DMSO (˜200 μL) twice weekly for 21-32 days. Subcutaneous tumor sizes were determined by measuring the length and width with calipers. These studies were approved by the U. of Utah Institutional Review Board and Institutional Animal Care and Use Committee and performed in the Animal Resource Center. Mice were euthanized when they experienced a greater than 10% loss in body weight or if they appeared ill. […]
(§3) Since BAY 11-7085 induced apoptosis of readherent HT-29 cells, an in vivo model was used to test the ability of the drug to prevent metastasis by seeding of intraabdominal tissue with colon cancer cells. […] Seeding results from the transient suspension of cancer cells, through a loss of adhesion either naturally ro because of surgical displacement, followed by readhesion to other tissues. […]

[2] = system: HCT-116 cells injected intraperitoneally; experiment: as above; format: in vivo; settings: HCT-116 intraperitoneal; pretreated, then twice weekly; after 21 days
From the text: as §1, §2, §3

293-COX-2 cells = experiment: Apoptosis of 293 cells with ponasterone-inducible COX-2; format: cell-based; settings: 8 hours
Experimental: The transiently suspended cells were lysed and allowed to bind to DNA oligonucleotides, containing the NF-κB consensus binding site, that were immobilized to 96-well plates. NF-κB protein bound to the oligonucleotides was detected by an antibody to the p65 subunit that only recognized p65 that is bound to DNA. The positive control was HeLa cells that were stimulated with TNFα A control was performed using excess free NF-κB oligonucleotides (Competitor). […] NF-κB binding activity was determined by the TransAM assay as in FIG. 5A. […] The data shown represent typical results of three separate experiments. […] An immunoblot for COX-2 was performed.
DLD-1, HCT-116, and HT-29 colon cancer cell lines were obtained from the ATCC collection and were cultured in Dulbecco's Modification of Eagle's Medium supplemented with 10% fetal bovine serum, glutamine, penicillin, and streptomycin. […]
Single cell suspensions were plated at 100,000 cells per well in 24-well plates in media containing DMSO, BAY 11-7082, BAY 11-7085, or MG-132 for 8-24 hours in an incubator. […] 400 μl of binding buffer was added to each tube and the cells were analyzed by flow cytometry immediately. The percent of apoptosis was determined as the percent of annexin V-positive, propidium iodide-negative cells of the total cells counted. […]

With `CC(C)(C)c1ccc(S(=O)(=O)/C=C/C#N)cc1` [BAY 11-7085, (2E)-3-[4-(tertiarybutylphenyl)sulfonyl]-2-propenenitrile] as the compound, how does the “Liver Metastases (mice with metastases / mice)” value [1] read?
Its value is “none of the 6 and 0/6”.

And the “Peritoneal Metastases (mice with metastases / mice)” value [1]?
Its value is 2 of 6 and 2/6.

And the “metastases of parietal and visceral peritoneum” value [2]?
The value was “clear evidence of metastases”.

What about the apoptosis following treatment (293-COX-2 cells; ponasterone-induced (1 μg/ml, 48 hours) 293-COX-2 cells) of the same compound?
The apoptosis following treatment was “marked increase in BAY 11-7085-induced apoptosis”.

What about the apoptosis following treatment (293-COX-2 cells; uninduced 293-COX-2 cells) of the same compound?
Its apoptosis following treatment is “no increase in apoptosis”.
